Results: patent US6541506B1, “Antifungal enediynes” (Phytera Incorporated, priority 1999, dated 2003)
≈ marks a conversion by molar mass, not a printed value. Where “and” joins values, the source holds several entries; their conditions need not be identical. Equal values may be shown once.

Columns and labels:
other fungal strains = assay: Anti-cell growth activity on other fungal strains (summary); assay type: cell-based; details: range over other fungal strains of Table 3
Experimental: (§1) The anti-cell growth activity of Compound 1 on other fungal strains, as well as bacterial strains and cultured mammalian cells, was also tested (Table 3). […] Bacterial cell growth and mammalian cell growth was inhibited at substantially higher concentrations of Compound 1.

C. albicans 93-1226 = assay: Candida growth inhibition, C. albicans 93-1226; assay type: cell-based; details: C. albicans 93-1226, fluconazole-resistant strain
Experimental: (§2) There are numerous assays that can be used to measure the inhibition of growth of a fungus such as Candida. In one example, cultures of Candida, e.g., C. albicans strains DSY1024 and SC5314, C. krusei ATCC 6258, and C. glabrata ATCC 90030, are subcultured from cryopreserved stocks onto Sabouraud's dextrose agar plates. Blastoconidia are suspended into RPMI-MOPS medium and inoculated (500 cfu/well) into 96-well plates containing test compounds in a final volume of 100 μL/well. After 22 hours at 35° C., 25 μL of XTT (2,3-bis(2-methoxy-4-nitro-5-sulfophenyl)-5-(phenylamino)carbonyl]-2H-tetrazolium hydroxide), (100 μg/mL) with PMS (phenazine methyl sulfate, 5 μM) are added to each well, followed by 2 hours of shaking. Growth is assessed spectrophotometrically by measuring the appearance of soluble formazan stain at 450 nm using an Emax microplate reader. Validity of the assay is confirmed by determination of the C. albicans minimum inhibitory concentration (MIC) for known antifungal agents such as amphotericin B, 5-flucytosine, fluconazole, nikkomycin Z, and polyoxin D.
(§3) Using the cell growth assay described herein, Compound 1 was tested for its ability to inhibit growth of C. albicans, C. kefyr, C. tropicalis, C. krusei, and C. glabrata.

Candida = assay: Anti-Candida activity by backbone length; assay type: cell-based; details: X=7
Description: The variable X denotes the length of a saturated carbon backbone. The antifungal activity of the claimed compounds changes in part based on the length of this backbone. […] Preferably, X is an integer between 5 and 7, inclusive, although longer carbon chains (X=8-10) may preserve or increase antifungal activity.

C. keyfer 46764 = assay: Candida growth inhibition, C. keyfer 46764; assay type: cell-based, C. kefyr
Experimental: as §2, §3

[1] = system: C. albicans, C. kefyr, C. tropicalis, C. krusei, and C. glabrata; assay: Candida growth inhibition, all tested strains (summary); assay type: cell-based, Candida spp.; details: range over all tested strains incl. fluconazole-resistant 93-1226 and UTR-14
Experimental: as §2, §3

M. canis = assay: Dermatophyte growth inhibition (microdilution, NCCLS M27A), M. canis; assay type: cell-based, Microsporum canis; details: M. canis, four days at 35° C., visual inspection
Experimental: (§4) The compounds of the invention are also effective against dermatophytes. Testing was performed using a microdilution method based on the NCCLS M27A antifungal protocol. Compounds to be tested were prepared in DMSO and diluted to the appropriate concentration in RPMI 1640 medium (the dermatophyte growth medium). An inoculum of each test organism was prepared from oatmeal agar plates to contain 0.5-2.5×10^3 conidia/mL. One hundred microliters of the inoculum was added to each well of a 96-well microtiter plate containing 4 μL of a test compound and 96 μL of RPMI 1640. Terbinafine (sold under the brand name Lamisil®) was used as a positive control.

T. rubrum = assay: Dermatophyte growth inhibition (microdilution, NCCLS M27A), T. rubrum; assay type: cell-based, Trichophyton rubrum; details: T. rubrum, four days at 35° C., visual inspection
Experimental: as §4

C. krusei 6258 = assay: Candida growth inhibition, C. krusei 6258; assay type: cell-based
Experimental: as §2, §3

C. albicans DSY1024 = assay: Candida growth inhibition (XTT), C. albicans DSY1024; assay type: cell-based
Experimental: as §2
LP416E8 (AC-05081-T4-3) was an organic extract of a manipulated plant cell culture from A. corsicum.

E. coli 700 = assay: Anti-cell growth activity, E. coli 700; assay type: cell-based
Experimental: as §1

C. albicans #64 = assay: Candida growth inhibition, C. albicans #64; assay type: cell-based
Experimental: as §2, §3

E. faecalis 29212 = assay: Anti-cell growth activity, E. faecalis 29212; assay type: cell-based
Experimental: as §1

C. tropicalis 623-20 = assay: Candida growth inhibition, C. tropicalis 623-20; assay type: cell-based
Experimental: as §2, §3

C. albicans A26 = assay: Candida growth inhibition, C. albicans A26; assay type: cell-based
Experimental: as §2

S. aureus 29213 = assay: Anti-cell growth activity, S. aureus 29213; assay type: cell-based
Experimental: as §1

HFF cells = assay: Anti-cell growth activity, cultured mammalian HFF cells; assay type: cell-based
Experimental: as §1

C. tropicalis 97-1037 = assay: Candida growth inhibition, C. tropicalis 97-1037; assay type: cell-based
Experimental: as §2, §3

C. glabrata 95-2421 = assay: Candida growth inhibition, C. glabrata 95-2421; assay type: cell-based
Experimental: as §2, §3

C. albicans UTR-14 = assay: Candida growth inhibition, C. albicans UTR-14; assay type: cell-based; details: C. albicans UTR-14, fluconazole-resistant strain
Experimental: as §2, §3

C. glabrata 95-2425 = assay: Candida growth inhibition, C. glabrata 95-2425; assay type: cell-based
Experimental: as §2, §3

C. albicans SC5314 = assay: Candida growth inhibition (XTT), C. albicans SC5314; assay type: cell-based
Experimental: as §2

C. tropicalis 750 = assay: Candida growth inhibition, C. tropicalis 750; assay type: cell-based
Experimental: as §2, §3

T. tonsurans = assay: Dermatophyte growth inhibition (microdilution, NCCLS M27A), T. tonsurans; assay type: cell-based; details: T. tonsurans, four days at 35° C., visual inspection
Experimental: as §4

C. albicans 90028 = assay: Candida growth inhibition, C. albicans 90028; assay type: cell-based
Experimental: as §2

C. krusei 97-1037 = assay: Candida growth inhibition, C. krusei 97-1037; assay type: cell-based
Experimental: as §2, §3

C. glabrata 90030 = assay: Candida growth inhibition, C. glabrata 90030; assay type: cell-based
Experimental: as §2, §3

S. cerevisiae 2229-5C = assay: Anti-cell growth activity, S. cerevisiae 2229-5C; assay type: cell-based
Experimental: as §1

S. cerevisiae AD1-9 = assay: Anti-cell growth activity, S. cerevisiae AD1-9; assay type: cell-based
Experimental: as §1

T. mentagrophytes = assay: Dermatophyte growth inhibition (microdilution, NCCLS M27A), T. mentagrophytes; assay type: cell-based; details: T. mentagrophytes, four days at 35° C., visual inspection
Experimental: as §4

A. fumigatus 8001 = assay: Anti-cell growth activity, A. fumigatus 8001; assay type: cell-based, Aspergillus fumigatus
Experimental: as §1

SMILES: O=C(O)CCCCCCC/C=C/C#CC#Cc1ccco1 [Compound 1]
- IC50 values, fungal growth, lower end of range (other fungal strains): ≥ 180 ng/mL
- IC50 (C. albicans 93-1226): 2.10 ng/mL (≈ 0.00739 µM)
- MIC (C. albicans 93-1226): 2.5 ng/mL (≈ 0.00879 µM)
- anti-Candida activity (ranking by backbone length X) (Candida): greatest anti-Candida activity
- MIC (C. keyfer 46764): 10 ng/mL (≈ 0.0352 µM)
- IC50 values, all tested Candida strains [1]: 0.35 to 42 ng/mL
- MIC (M. canis): 0.001 µg/mL (≈ 0.00352 µM)
- MIC (T. rubrum): 0.001 µg/mL (≈ 0.00352 µM)
- IC50 (C. krusei 6258): 41.90 ng/mL (≈ 0.147 µM)
- MIC (C. krusei 6258): 50 ng/mL (≈ 0.176 µM)
- MIC (C. albicans DSY1024; C. albicans DSY1024): 2.5 ng/mL (≈ 0.00879 µM)
- MIC (E. coli 700): >200 µg/mL
- IC50 (C. albicans #64): 1.45 ng/mL (≈ 0.0051 µM)
- MIC (C. albicans #64): 5 ng/mL (≈ 0.0176 µM)
- IC50 (E. faecalis 29212): 7.5 µg/mL (≈ 26.4 µM)
- MIC (E. faecalis 29212): 12.5 µg/mL (≈ 44 µM)
- IC50 (C. tropicalis 623-20): 2.96 ng/mL (≈ 0.0104 µM)
- MIC (C. tropicalis 623-20): 5 ng/mL (≈ 0.0176 µM)
- IC50 (C. albicans A26): 1.10 ng/mL (≈ 0.00387 µM)
- IC50 (S. aureus 29213): 31.6 µg/mL (≈ 111 µM)
- MIC (S. aureus 29213): 50 µg/mL (≈ 176 µM)
- IC50 (HFF cells): 12 µg/mL (≈ 42.2 µM)
- IC50 (C. tropicalis 97-1037): 3.68 ng/mL (≈ 0.0129 µM)
- MIC (C. tropicalis 97-1037): 5 ng/mL (≈ 0.0176 µM)
- IC50 (C. glabrata 95-2421): 8.25 ng/mL (≈ 0.029 µM)
- MIC (C. glabrata 95-2421): 12.5 ng/mL (≈ 0.044 µM)
- IC50 (C. albicans UTR-14): 3.64 ng/mL (≈ 0.0128 µM)
- MIC (C. albicans UTR-14): 2.5 ng/mL (≈ 0.00879 µM)
- IC50 (C. glabrata 95-2425): 3.13 to 6.25 ng/mL
- MIC (C. glabrata 95-2425): 12.5 ng/mL (≈ 0.044 µM)
- MIC (C. albicans SC5314; C. albicans SC5314): 0.625 ng/mL and 1.25 ng/mL
- IC50 (C. tropicalis 750): 4.67 ng/mL (≈ 0.0164 µM)
- MIC (C. tropicalis 750): 5 ng/mL (≈ 0.0176 µM)
- MIC (T. tonsurans): 0.001 µg/mL (≈ 0.00352 µM)
- IC50 (C. albicans 90028): 1.22 ng/mL (≈ 0.00429 µM)
- IC50 (C. krusei 97-1037): 26.10 ng/mL (≈ 0.0918 µM)
- MIC (C. krusei 97-1037): 50 ng/mL (≈ 0.176 µM)
- IC50 (C. glabrata 90030): 12.5 to 25 ng/mL
- MIC (C. glabrata 90030): 5 ng/mL (≈ 0.0176 µM)
- IC50 (S. cerevisiae 2229-5C): 0.5 to 1.0 µg/mL
- MIC (S. cerevisiae 2229-5C): 1 µg/mL (≈ 3.52 µM)
- IC50 (S. cerevisiae AD1-9): 0.18 µg/mL (≈ 0.633 µM)
- MIC (S. cerevisiae AD1-9): 0.25 µg/mL (≈ 0.879 µM)
- MIC (T. mentagrophytes): 0.001 µg/mL (≈ 0.00352 µM)
- IC50 (A. fumigatus 8001): 50 to 100 µg/mL
- MIC (A. fumigatus 8001): 200 µg/mL (≈ 703 µM)

SMILES: O=C(O)CCCCCC=CC#CC#Cc1ccco1 [Compound 2]
- IC50 (C. albicans DSY1024; C. albicans DSY1024 (Table 4)): 1817 ng/mL (≈ 7.09 µM)
- MIC (C. albicans DSY1024; C. albicans DSY1024 (Table 4)): 3125 ng/mL (≈ 12.2 µM)
- inhibition of growth of strain SC5314 (C. albicans SC5314): able to inhibit growth
- IC50 (C. albicans SC5314; C. albicans SC5314 (Table 4)): 2592 ng/mL (≈ 10.1 µM)
- MIC (C. albicans SC5314; C. albicans SC5314 (Table 4)): 3125 ng/mL (≈ 12.2 µM)

SMILES: O=C(O)CCCCCCC=CC#CC#Cc1ccco1 [Compound 3]
- MIC (M. canis): 2.0 µg/mL (≈ 7.4 µM)
- MIC (T. rubrum): 8.0 µg/mL (≈ 29.6 µM)
- IC50 (C. albicans DSY1024; C. albicans DSY1024 (Table 4)): 503 ng/mL (≈ 1.86 µM)
- MIC (C. albicans DSY1024; C. albicans DSY1024 (Table 4)): 1000 ng/mL (≈ 3.7 µM)
- MIC (T. tonsurans): 2.0 µg/mL (≈ 7.4 µM)
- MIC (T. mentagrophytes): 2.0 µg/mL (≈ 7.4 µM)

SMILES: O=C(O)CCCCCCC/C=C\C#CC#Cc1ccco1 [Compound 5]
- anti-Candida activity (ranking by backbone length X) (Candida): greatest anti-Candida activity
- IC50 (C. albicans DSY1024; C. albicans DSY1024 (Table 4)): 3.9 ng/mL (≈ 0.0137 µM)
- MIC (C. albicans DSY1024; C. albicans DSY1024 (Table 4)): 7.8 ng/mL (≈ 0.0274 µM)
